In article PMC7495481, “Sequence specificity analysis of the SETD2 protein lysine methyltransferase and discovery of a SETD2 super-substrate” (Communications Biology, 2020):

Columns and labels:
SETD2 = target: T1, SETD2 (Homo sapiens, UniProt Q9BYW2); assay: Time courses of methylation of ssK36 and H3K36 compared (initial slopes); format: biochemical; conditions: 20 µM substrate, 6 µM enzyme; two experiments, average ± SEM
T1 construct: SETD2 catalytic SET domain (amino acids 1347–1711, UniProt No: Q9BYW2); made in house; host or cells: E. coli
T1 sequence (Q9BYW2 1347-1711): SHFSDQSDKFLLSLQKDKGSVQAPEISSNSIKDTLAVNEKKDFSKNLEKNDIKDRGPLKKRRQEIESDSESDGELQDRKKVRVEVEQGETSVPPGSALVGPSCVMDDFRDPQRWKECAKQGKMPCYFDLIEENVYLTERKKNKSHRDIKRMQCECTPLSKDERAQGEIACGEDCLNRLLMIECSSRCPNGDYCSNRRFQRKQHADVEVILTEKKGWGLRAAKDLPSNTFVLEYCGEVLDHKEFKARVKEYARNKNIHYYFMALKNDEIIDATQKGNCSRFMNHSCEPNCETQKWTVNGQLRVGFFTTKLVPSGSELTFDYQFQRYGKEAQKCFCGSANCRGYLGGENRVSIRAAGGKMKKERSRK
Text: Fig. 2 Design of an optimized SETD2 peptide substrate and analysis of its methylation. a Variants of the H3K36 (29–43) peptide containing up to five mutations (Supplementary Table 1) were synthesized on a cellulose membrane and methylated by SETD2. The signal of the transferred radioactive methyl groups was detected by autoradiography. Spots A1 and B15 contain the H3K36 sequence, A2 and B16 the H3K36A peptide. Two films with different exposure times are shown to visualize weaker methylated spots as well. b Comparison of the methylation of purified super-substrate (ssK36) and the H3K36 peptides. […] Methylation reactions were conducted using 20 µM peptide and 6 µM enzyme. […]
The H3K36 (27–43) and the H3K36M (27–43) peptides were purchased from Intavis AG (Köln, Germany) and the ssK36 peptide (29–43) and the ssK36M peptide (29–43) were from Innovative Peptide Solutions (Berlin, Germany). […] The signals of the transferred radioactive labeled methyl groups were detected by autoradiography using a hyperfilm^TM high performance autoradiography film (GE Healthcare) at −80 °C in the dark. […]
Time courses of ssK36 methylation were analyzed by fitting to an exponential reaction progress curve (Eq. 1). Initial rates of single turnover reactions were determined using the first derivative of eq. […]

NSD1 = assay: Peptide methylation by NSD1; format: biochemical; conditions: peer review file
Text: We, therefore, repeated the peptide array used for the development of the SETD2 super-substrate, which is shown in Figure 2A of our manuscript for NSD1 and NSD2. […]
that this mutation specifically increases the activity of these two enzymes. In contrast, with […]
combined with H39N/K. Importantly, in case of SETD2 H39N only has an effect in the context of the other mutations in ssK36. We conclude that the ssK36 substrate is specifically optimized for SETD2 as expected given the workflow of our experiments. The finding that H39N increases the activity of NSD1 and NSD2 is interesting and deserves additional work. It […]
conducted with NSD1 and NSD2. The SETD2 panel is taken from the manuscript for comparison. The table indicates the peptide compositions. Note, the gradual increase of methylation with increasing number of mutations in the case of SETD2. In case of NSD1 and NSD2, increased methylation is solely due to the H39N mutation , which has a weaker […]

fold higher initial slope for ssK36 methylation vs H3K36 (SETD2): 290 ± 70 fold
Sequence: APRFGGVKRPNRYRP [ssK36, super-substrate peptide with four amino acid exchanges (A31R, T32F, K37R, H39N)]
methylation by NSD1 (NSD1): better substrate than H3K36
